We go through 18 compounds from BindingDB's records for doi:10.7270/Q2DF6PMF (Nmmlsc, 2007).

One assay deals with T1, N-formyl peptide receptor 2 (Homo sapiens, UniProt P25090).
T1 sequence (P25090 whole entry): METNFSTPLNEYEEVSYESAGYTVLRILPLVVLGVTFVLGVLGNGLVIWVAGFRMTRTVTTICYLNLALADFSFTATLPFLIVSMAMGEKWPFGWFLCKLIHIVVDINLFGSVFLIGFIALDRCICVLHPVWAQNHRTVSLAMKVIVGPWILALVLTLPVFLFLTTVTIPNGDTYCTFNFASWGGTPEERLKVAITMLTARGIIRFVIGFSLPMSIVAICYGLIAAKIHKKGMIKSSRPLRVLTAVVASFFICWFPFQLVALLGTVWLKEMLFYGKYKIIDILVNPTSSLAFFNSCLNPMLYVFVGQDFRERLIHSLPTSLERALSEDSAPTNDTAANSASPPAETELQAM
In words: concentration-dependent FPRL1 ligand displacement – cell-based, FPR counter-screen, fluorescent ligand, dose response (AID 520).
Details: not given
`COc1ccc(C(=O)C2C(=O)C(=O)N(Cc3ccco3)C2c2ccc(OC)cc2OC)cc1` (stereo not given) [(4E)-5-(2,4-dimethoxyphenyl)-1-(2-furanylmethyl)-4-[hydroxy-(4-methoxyphenyl)methylidene]pyrrolidine-2,3-dione]: the half-inhibitory concentration (IC50) was > 66.7 µM and the Ki is > 40.3 µM.
For the compound `CCOC(=O)c1cc(NC(=O)C2C3CCC(O3)C2C(=O)O)cc(C(=O)OCC)c1` (stereo not given) [MLS000521500], the IC50 was > 66.7 µM.
As for `CCCCn1c(NC(=O)CC)c(C#N)c2nc3ccccc3nc21` [MLS000079918], the half-inhibitory concentration (IC50) is > 66.7 µM.
Take `CC1(C)S[C@@H]2[C@H](NC(=O)Cc3ccccc3)C(=O)N2[C@H]1C(=O)O` [MLS000069426]: the 50% inhibitory concentration (IC50) was > 66.7 µM.
As for `COc1ccc(OC)c(C2C(C(=O)c3ccccc3)C(=O)C(=O)N2Cc2ccco2)c1` (stereo not given) [(4Z)-5-(2,5-dimethoxyphenyl)-1-(2-furanylmethyl)-4-[hydroxy(phenyl)methylidene]pyrrolidine-2,3-dione], the IC50 is > 66.7 µM and the inhibitory constant (Ki) is > 40.3 µM.
As for `N#Cc1c(C(F)(F)F)cc(-c2ccccc2)nc1SCc1nc(N)nc(N2CCOCC2)n1` [2-[(4-amino-6-morpholin-4-yl-1,3,5-triazin-2-yl)methylsulfanyl]-6-phenyl-4-(trifluoromethyl)pyridine-3-carbonitrile], the concentration for half-maximal inhibition (IC50) was > 66.7 µM.
On the same count and under the same terms, as for `COc1ccc(-c2c(C)oc3c(CN4CCN(CCO)CC4)c(O)ccc3c2=O)cc1OC` [3-(3,4-dimethoxyphenyl)-7-hydroxy-8-[[4-(2-hydroxyethyl)-1-piperazinyl]methyl]-2-methyl-1-benzopyran-4-one], the figure is > 66.7 µM.
Take `Cc1ccc(C(=O)C2C(=O)C(=O)N(CCN3CCOCC3)C2c2cccnc2)cc1` (stereo not given) [(4Z)-4-[(4-methylphenyl)-oxidanyl-methylidene]-1-(2-morpholin-4-ylethyl)-5-pyridin-3-yl-pyrrolidine-2,3-dione]: the half-inhibitory concentration (IC50) was > 66.7 µM and the Ki was > 40.3 µM.
Consider `Cc1ccc(C(=O)C2C(=O)C(=O)N(CC(C)O)C2c2ccc(N(C)C)cc2)cc1` (stereo not given) [(4E)-5-[4-(dimethylamino)phenyl]-1-(2-hydroxypropyl)-4-[hydroxy(p-tolyl)methylene]pyrrolidine-2,3-quinone], for which the IC50 was > 66.7 µM and the Ki is > 40.3 µM.
With `COc1ccc(C2C(C(=O)c3ccccc3)C(=O)C(=O)N2CC(C)O)c(OC)c1` (stereo not given) [(4Z)-5-(2,4-dimethoxyphenyl)-4-[hydroxy(phenyl)methylene]-1-(2-hydroxypropyl)pyrrolidine-2,3-quinone], the IC50 was > 66.7 µM and the inhibitory constant (Ki) is > 40.3 µM.
Take `COc1cccc(OC)c1C(=O)C(C#N)c1nc2ccccc2[nH]1` (stereo not given) [SMR000024183]: the IC50 is > 66.7 µM and the Ki was > 40.3 µM.
In the case of `OCc1nc2ccccc2n1CC(O)Cn1ccc2ccccc21` (stereo not given) [1-[2-(hydroxymethyl)-1-benzimidazolyl]-3-(1-indolyl)-2-propanol], the IC50 was > 66.7 µM.
In the case of `Cc1[nH]n2c(=O)c3c(nc2c1-c1ccccc1)CCC3` [SMR000082027], the IC50 was > 66.7 µM.
For the compound `CCOC(=O)Nc1ccc(OC)cc1S(=O)(=O)N1CCCCC1` [MLS000048808], the 50% inhibitory concentration (IC50) was > 66.7 µM.
In the case of `CCCNC(=O)CS(=O)(=O)Cc1nc(-c2cccc(OC)c2)oc1C` [2-[[2-(3-methoxyphenyl)-5-methyl-1,3-oxazol-4-yl]methylsulfonyl]-N-propyl-ethanamide], the IC50 was > 66.7 µM.
For `COc1ccc(OC)c(C2C(C(=O)c3cc4ccccc4o3)C(=O)C(=O)N2c2cc(C)on2)c1` (stereo not given) [3-(1-benzofuran-2-carbonyl)-2-(2,5-dimethoxyphenyl)-4-hydroxy-1-(5-methyl-1,2-oxazol-3-yl)-2H-pyrrol-5-one], the IC50 is > 66.7 µM and the Ki was > 40.3 µM.

The assay is the same for the next values; noted with them: inactive by the depositor's call.
The compound `COc1ccc(-c2cn3cccnc3n2)cc1NC(=O)CC(C)C` [MLS000045943] returned an IC50 of 45 µM.
With `Cc1[nH]n2c(=O)cc(-c3ccc([N+](=O)[O-])cc3)nc2c1-c1ccccc1` [MLS000547439], the concentration for half-maximal inhibition (IC50) is 31.7 µM.
